Reference: article PMC3844262 (Journal of immunology (Baltimore, Md. : 1950), 2013)

Assays:
[1] = test system: GP34-A11R cross-reactive T cell lines (TCL #1, #3, #7); assay type: cell-based, C57BL/6 (B6) mice
[2] = test system: CD8+ T cells from acute day 8 LCMV-infected mice; assay type: cell-based, C57BL/6 (B6) mice
H-2K^b = H-2K^b (Mus musculus, UniProt P01901); assay type: binding, murine
Chain of H-2K^b (P01901 whole entry, looked up): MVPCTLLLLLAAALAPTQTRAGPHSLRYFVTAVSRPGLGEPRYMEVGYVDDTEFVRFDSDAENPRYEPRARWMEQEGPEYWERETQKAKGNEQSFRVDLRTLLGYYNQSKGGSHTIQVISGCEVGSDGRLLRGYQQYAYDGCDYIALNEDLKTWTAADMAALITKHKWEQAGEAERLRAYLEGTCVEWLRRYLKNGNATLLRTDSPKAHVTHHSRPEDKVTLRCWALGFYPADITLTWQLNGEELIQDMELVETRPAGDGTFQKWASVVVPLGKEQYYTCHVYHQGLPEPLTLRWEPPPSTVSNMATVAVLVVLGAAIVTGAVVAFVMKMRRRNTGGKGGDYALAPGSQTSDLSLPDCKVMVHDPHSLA

Row | Sequence | CD8+ T cells responding (IFNγ), TCL #7 [1] | IFNγ production ex vivo, acute LCMV-infected mice (OVA hybrid experiment) [2] | Tm of K^b-peptide complex (H-2K^b) | IFNγ response, % of total CD8+ T cells [2]
1 | SIINFAAL [OVA-AA] | not cross-reactive | not observed | – | –
2 | SIINFEKL [OVA] | does not cross-react | – | 51.5 °C | –
3 | SIYRYYGL | – | – | – | not observed
